Each structure is given as a SMILES string. Where two headings read alike, the source gives them in different places.

This is an account of results in patent publication US6331555A, “Treatment of platelet derived growth factor related disorders such as cancers” (priority 1999, dated 2001).

The test system of one data set is spleen cells. The data set is described as follows: Normal immune function in rats bearing a primary tumor. It is filed as in vivo, rat. More on the design: key to 3H-thymidine uptake: 0: no change; +/-: decrease in some drug-treated animals to levels detected in normal (non-tumor-bearing, non-drug-treated) animals. As to conditions: 8.4 mg/kg/day. An excerpt: At the indicated times, animals were sacrificed, and the spleens were aseptically removed and placed into sterile medium. Spleens were processed into single cell suspensions by grinding between sterile frosted glass microscope slides. After a single wash to remove tissue debris, the spleen cells were resuspended in a hypotonic ammonium chloride buffer to lyse erythrocytes. Lymphocytes were washed and resuspended to the appropriate concentrations in complete medium, consisting of RPMI plus 10% heat-inactivated FBS, 2 mM glutamine, 50 μM β-mercaptoethanol, and penicillin-streptomycin. The responses of the lymphocytes were examined in the following assays according to accepted procedures (Current Protocols in Immunology. Coligan, J. E., Kruisbeek, A. M., Margulies, D. H., Shevach, E. M., Strober, W. (eds.) John Wiley and Sons, Inc., 1992).
The T-cell mitogen, ConA, and the T-cell independent B-cell mitogen, LPS, were added to 96-well round-bottom wells at the indicated concentrations. Lymphocytes from normal, vehicle-dosed, and drug-dosed animals were added at a final concentration of 2.5×10^5 /well. Cultures were usually set up in triplicate or quadruplicate. The plates were incubated at 37° C. in a humidified atmosphere containing 5% CO2 for the indicated times. Supernatants (approximately 100 μL) were carefully removed from the wells and stored at -80° C. for lymphokine and immunoglobulin analyses. To measure proliferation of the lymphocytes, 1 μCi of ^3 H-thymidine was added to each well, and the plates were incubated for 6 hr. The cultures were harvested onto glass fiber filters, and the incorporated radioactivity was quantitated by liquid scintillation counting (Betaplate, Wallac).
Lymphocytes from normal, vehicle-dosed, and drug-dosed animals were plated at 2.5×10^5 /well in round-bottom 96-well plates. Stimulator cells were then added at the same cell concentration. The stimulator cells consisted of syngeneic or allogeneic lymphocytes which had been treated with 50 μg/mL of mitomycin C for 30 min prior to the assay. The plates were incubated for 3 to 4 days, at which time supernatants were harvested and the cultures were pulsed as described for the mitogen assays.
Supernatants from mitogen and MLR cultures were assayed for IL-2 and IL-6 content by the ability to support the growth of factor-dependent cell lines. HT-2 cells (10^4 /well, IL-2-dependent) and 7TD1 cells (2×10^3 /well, IL-6-dependent) were plated in 96-well flat-bottom plates, in 50 μL/well. Supernatants were added in 50 μL/well, and the plates were incubated overnight (HT-2) or four days (7TD1). Cellular proliferation was determined in the MTT colorimetric assay (Appendix 3.1).
Wistar rats received SC implants of C6 cells on day 0. […] The control group was not treated after tumor implantation. On day 21, the animals were sacrificed and the spleens were removed for in vitro analyses. Splenocytes were stimulated with ConA, LPS, and alloantigen (DA rat spleen cells) as in the murine studies.

For data set [1] the following is noted: mouse, in vivo. As for the experimental part: Plasma was prepared and frozen in liquid nitrogen. Tissues and organs were resected and immediately frozen in liquid nitrogen. After the addition of an internal standard, plasma samples were acidified with HCl and extracted with acetonitrile. The acetonitrile fraction was evaporated to dryness in a vacuum centrifuge with heating and redissolved in methanol. Tissue and organ samples were homogenized according to the weight ratio of 1:5 (w:v) in 50 mM Tris-HCl, pH 7.4, at 20,000 rev/min, using a tissue homogenizer (Brinkmann Polytron Model PT3000). After the addition of an internal standard, the homogenate was acidified with HCl and then extracted with acetonitrile. The acetonitrile fraction was then extracted with an equal volume of diethyl ether. The ether fraction was evaporated to dryness in a vacuum centrifuge with heating and redissolved in methanol.
Samples for HPLC analysis were injected onto a Hewlett Packard Hypersil 5-μm C18 cartridge column (100×4.6 mm). The mobile phase was methanol:35 mM KH2 PO4 (pH 4.5) 55:45 containing 4 mM triethylamine. The flow rate was 1.2 mL/min. The compounds were monitored by UV absorption at 254 nm using a Hewlett-Packard diode-array detector (HP Model 1090). Plasma and tissue concentrations were determined from standard curves using peak area for quantitation. […] The internal standard used was 5-methyl-pyrazole-4-carboxylic acid-(4-trifluoromethyl)-anilide.
Table XXII. […] Plasma and brain samples were prepared and analyzed by HPLC as described in Appendix 6. All results were calculated by the method of internal standardization. NT= not tested, ND= not detected.

Data set [2] relates to NIH3T3 cells overexpressing the human EGF receptor. The experiment in a line: EGF-stimulated mitosis, flow cytometry. It is filed as cell-based, mouse. As to conditions: 100 mM A10.
Another data set concerns D1B leukemia. The data set is described as follows: SC syngeneic leukemia model in mice. It counts as in vivo, murine. As to conditions: DBA/2, 20 mg/kg/day, day 22. The method, then:
Cell lines were grown in appropriate medium (see Appendix 1). Cells were harvested at or near confluency with 0.05% Trypsin-EDTA and pelleted at 450×g for 10 min. Pellets were resuspended in sterile PBS or media (without FBS) to a particular concentration and the cells were implanted into the hindflank of mice. Tumor growth was measured over 3 to 6 weeks using venier calipers. Tumor volumes were calculated as a product of length×width×height unless otherwise indicated. P values were calculated using the Students' t-test.

For data set [3] the following is noted: in vivo. An excerpt: Many cancer therapeutics are cytotoxic in nature and have profound effects on blood cells resulting in cytopenia.

Regarding `Cc1oncc1C(=O)Nc1ccc(C(F)(F)F)cc1` [Compound A10, 5-methylisoxazole-4 carboxylic acid-(4-trifluromethyl)-anilide], the “syngeneic MLR proliferative response” value with spleen cells is listed as “reduced in one of four A10-treated tumor-bearing animals”. The 3H-thymidine uptake with spleen cells (Allo) was 0; in the data set on spleen cells (ConA), 0; with spleen cells (LPS), 0; in the data set with spleen cells (Syn), “+/-”; in the data set with spleen cells (Tumor stimulus), 0. Moreover, the IL-2 production with spleen cells (Allo), in the data set with spleen cells (ConA), in the data set on spleen cells (LPS), in the data set on spleen cells (Syn) and in the data set on spleen cells (Tumor stimulus) was 0 each time. Further, the IL-6 production with spleen cells (Allo), in the data set on spleen cells (ConA), with spleen cells (LPS), with spleen cells (Syn) and in the data set on spleen cells (Tumor stimulus) was 0 throughout. Further, the “plasma concentration, single dose” value in data set [1] (20 mg/kg) and in data set [1] (40 mg/kg) was “not detected” each time. The EGF-stimulated mitosis entry in data set [2] is “not able to inhibit EGF-stimulated mitosis”. The “% Inhibition” value in the data set with D1B leukemia turned out to be 95%. In data set [3], the “effects on blood cell” value was “No effects on blood cell were observed”.
